Test results taken from US9884012B2, “Use of PEDF-derived polypeptides for promoting muscle or tendon regeneration or arteriogenesis” (MacKay Memorial Hospital, priority 2012, dated 2018).
Where “and” joins values, the source holds several entries; their conditions need not be identical. Identical values can stand only once.

Assays:
ischemic hindlimbs = assay: hindlimb ischemia model, laser Doppler perfusion imaging of limb blood perfusion; type: in vivo, C57BL/6 wild-type mice; conditions: for Ischemic/Non-ischemic Perfusion Ratio (%) 7 days: 7 days after surgery, 50 μl sustained-release alginate gel formulation, 10 μM peptide (Bolus: bolus formulation of 29-mer), single intramuscular injection to gracilis muscle; for Ischemic/Non-ischemic Perfusion Ratio (%) 21 days: 21 days after surgery; for Ischemic/Non-ischemic Perfusion Ratio (%) 21 days / Ischemic/Non-ischemic Perfusion Ratio (%) 28 days: sustained-release formulation (Bolus: bolus 29-mer), single intramuscular injection; for Ischemic/Non-ischemic Perfusion Ratio (%) 28 days: 28 days (four weeks) after surgery; for Ischemic/Non-ischemic Perfusion Ratio (%) Pre OP: before surgery (baseline); for Ischemic/Non-ischemic Perfusion Ratio (%) Pre OP / Ischemic/Non-ischemic Perfusion Ratio (%) Post OP: LDPI; for Ischemic/Non-ischemic Perfusion Ratio (%) Post OP: immediately after surgery
Experimental: 6-week-old female C57BL/6 wild-type mice were anesthetized by an intraperitoneal injection of a mixture of zoletil (6 mg/kg) and xylazine (3 mg/kg). Hair was removed from the hindquarter with a depilating cream. To establish hindlimb ischemia, unilateral external iliac and femoral arteries and veins were ligated, cut, and excised. After surgery, the mice were randomly assigned to several experimental groups (n=6, each group) and treated as follows. In the blank control group, the mice were treated with 50 μl of blank alginate gel, whereas in the bolus control group, the mice received the bolus formulation containing 29-mer. In the PEDF peptide/alginate gel treatment groups, the mice received 50 μl of the sustained-release formulation, which comprised either 29-mer, 24-mer, or 20-mer. Additionally, in a PEDF 18-mer control group, mice were treated with a sustained-release formulation containing a PEDF 18-mer peptide. Treatments were applied by way of a single intramuscular injection to the gracilis muscle immediately after femoral artery and vein excision operation. The incision was closed after the wound was irrigated with sterile saline.
A laser Doppler perfusion imaging (LDPI) analyzer (Moor Instruments, USA) was used to quantify hindlimb blood perfusion before surgery (pre OP), immediately after surgery (post OP), and over time after surgery. To minimize vasoconstriction by anesthetic heat loss, animals were kept on a heating plate at 37° C. for 5 min before measurement. Representative LDPI images illustrating the blood perfusion of ischemic hindlimbs over a time period of 4 weeks were provided in FIG. 2 in which dark blue color represents low blood flow. Blood perfusion is expressed as LDPI index representing the ratio of operated (ischemic) versus non-operated (non-ischemic) limb blood flow of the same mouse, and the results were summarized in FIG. 3 and Table 1 (n 6).

tendon stem cells (TSCs) = assay: TSCs proliferation assay (BrdU labeling) in vitro; type: cell-based, New Zealand White rabbits; conditions: TSCs passage 4; 50 nM peptide, 5% FBS, 24 hours; BrdU pulse-labeling
Experimental: New Zealand White rabbits (6-8 months old, 3.0-4.0 kg) were used in this study. Achilles tendons were removed from the rabbits by cutting through their bony attachments. The tendon sheath was stripped away and the core portion of the tendons was minced into small fragments. Each 100 mg of fragment was then digested in a solution containing 3 mg/mL of type I collagenase and 4 mg/mL of dispase in 1 ml Dulbecco's Modified Eagle Medium (DMEM-high glucose) at 37° C. for 2 hours. The resultant cell suspension was centrifuged at 1,000 rpm for 15 minutes to obtain a cell pellet which was then resuspended in a growth medium consisting of DMEM supplemented with 10% heat inactivated fetal bovine serum (FBS), 100 μM 2-mercaptoethanol, and 100 U/ml penicillin and 100 μg/ml streptomycin. For passage, near-confluent cells were harvested with 0.25% trypsin and then 1×10^5 subcultured cells were further cultured in medium.
The TSCs at passage 4 were seeded at gelatin-coated slide in a 6-well plate at a density of 2×10^5 cells per well and cultured in growth medium (DMEM+10% FBS) for 24 hours before being replaced by a basal growth medium with 5% FBS only (control group) or with 5% FBS plus an additional 50 nM of PEDF-derived peptide (i.e., 29-mer, 24-mer, 20-mer, 18-mer, Mo 29-mer, or Mo 20-mer) for 24 hours. For BrdU labeling assay, BrdU (final concentration, 10 μM) was added to the culture for 4 hours. After fixing with 4% paraformaldehyde, cells were exposed to cold methanol for 2 minutes, and then treated with 1 N HCl at RT for 1 hour before performing immunofluorescence. The phenotype of passage 4 TSC was determined by immunocytochemistry of nucleostemin and type I collagen. Almost all of expanded TSCs were nucleostemin and type I collagen-double positive cells.
It has been reported that during the tendon healing process, tendon stem cells (TSCs) would proliferate and differentiate into tenocytes. To investigate whether present PEDF peptides would induce the proliferation of TSCs in vitro, tendons stem cells were isolated and cultured as described in the “Materials and Methods” section. The purity of TSCs was confirmed by a TSC marker, nucleostemin, as well as the expression of type I collagen by TSCs; together, these analyses indicated a TSC purity of near 100% (data not shown). The proliferation of TSCs was confirmed by BrdU pulse-labeling for 2 hours. Quantitative analysis of the level of BrdU-positive cells was performed as described above, and the results were summarized in Table 8.

[1] = tested on: tendon stem cells (TSCs) in injured tendon; assay: tendo Achilles injury model, in vivo TSC proliferation (nucleostemin staining); design: species or system Sprague-Dawley rats; conditions: injured tendon specimens of Example 4.1; sustained-release formulation (Bolus: bolus 29-mer)
Experimental: De-paraffinized tissue sections or 4% paraformaldehyde fixed rabbit tendon stem cells (TSCs) were blocked with 10% goat serum and 5% BSA for 1 hour. Double staining was done using primary antibodies against α-SMA (1:100 dilution), IB4 (5 μg/ml), Pax7 (1:100 dilution), nucleostemin (1:100 dilution) and type I collagen 1A1 (1:50) at 37° C. for 2 hours, followed by incubation with the appropriate rhodamine- or FITC-conjugated donkey IgG for 1 hour at RT. Nuclei were located by counterstaining with Hoechst 33258 for 7 minutes. Images were captured using a Zeiss epifluorescence microscope with a CCD camera.
To investigate the effects of the present PEDF peptides on tendon regeneration, a rat model with tendon injury was established as follows. Adult 10-week-old male Sprague-Dawley rats (total n=50; initial body weight=312±11 g) were anesthetized by an intraperitoneal injection of a xylazine (10 mg/kg). Then, the left tendo Achilles injury was created by full-thickness insertion of an 18-gauge needle through tendo Achilles 1 cm proximal to its insertion into the calcaneum. This created a horizontal (transaction) wound which was flanked by intact tendon tissue on both sides to prevent the retraction of severed ends.
The rats were randomly assigned (n=10/group) to five experimental groups and treated as follows. In the blank control group, the mice were treated with 150 μl of blank alginate gel. For the bolus control group, 150 μl of the bolus formulation (29-mer) was administered. […]
Specimens obtained from animals in different experimental groups of Example 4.1 were stained for nucleostemin (green) to investigate whether in vivo TSC proliferation would be promoted by the present sustained-release formulation during the tendon wound healing process. In quantitative analysis, ten randomly selected microscopic fields in each experimental group were photographed, and the percentage of nucleostemin-positive cells per total cells (counterstained by Hoechst 33258; blue) was calculated.

SLGAEQRTESIIHRALYYDL [20-mer, synthetic peptide corresponding to residues 93-112 of human PEDF]
Ischemic/Non-ischemic Perfusion Ratio (%) 7 days (ischemic hindlimbs): 43.3 ± 7.2 % | Ischemic/Non-ischemic Perfusion Ratio (%) 21 days (ischemic hindlimbs): 75.5 ± 5.2 % | Ischemic/Non-ischemic Perfusion Ratio (%) 28 days (ischemic hindlimbs): 93% and 92.7 ± 3.0 % | Ischemic/Non-ischemic Perfusion Ratio (%) Pre OP (ischemic hindlimbs): 98.0 ± 7.8% | Ischemic/Non-ischemic Perfusion Ratio (%) Post OP (ischemic hindlimbs): 4.6 ± 0.64% | BrdU Labeling Index (%) (tendon stem cells (TSCs)): 33.2 ± 6.6 % | Nucleostemin Labeling Index (%) [1]: 15.0 ± 3.9 %

SLGAEQRTESIIHRALYYDLISSP [24-mer, synthetic peptide corresponding to residues 93-116 of human PEDF]
Ischemic/Non-ischemic Perfusion Ratio (%) 7 days (ischemic hindlimbs): 53.1 ± 0.37 % | Ischemic/Non-ischemic Perfusion Ratio (%) 21 days (ischemic hindlimbs): 86.1 ± 5.9 % | Ischemic/Non-ischemic Perfusion Ratio (%) 28 days (ischemic hindlimbs): 92% and 91.8 ± 5.5 % | Ischemic/Non-ischemic Perfusion Ratio (%) Pre OP (ischemic hindlimbs): 91.5 ± 5.6% | Ischemic/Non-ischemic Perfusion Ratio (%) Post OP (ischemic hindlimbs): 8.0 ± 0.03% | BrdU Labeling Index (%) (tendon stem cells (TSCs)): 29.0 ± 4.6 % | Nucleostemin Labeling Index (%) [1]: 16.8 ± 4.2 %

SLGAEQRTESIIHRALYYDLISSPDIHGT [29-mer, synthetic peptide corresponding to residues 93-121 of human PEDF]
Ischemic/Non-ischemic Perfusion Ratio (%) 7 days (ischemic hindlimbs): 44.8 ± 2.0 % | Ischemic/Non-ischemic Perfusion Ratio (%) 21 days (ischemic hindlimbs): 101 ± 7.0 % | Ischemic/Non-ischemic Perfusion Ratio (%) 28 days (ischemic hindlimbs): 105% and 105 ± 4.8 % | Ischemic/Non-ischemic Perfusion Ratio (%) Pre OP (ischemic hindlimbs): 108.2 ± 8.8% | Ischemic/Non-ischemic Perfusion Ratio (%) Post OP (ischemic hindlimbs): 7.0 ± 3.1% | BrdU Labeling Index (%) (tendon stem cells (TSCs)): 31.8 ± 3.6 % | Nucleostemin Labeling Index (%) [1]: 16.4 ± 2.9 %
